The values that follow come from PubChem BioAssay (NCI).

Structures are written as SMILES.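 Cultured in 96-well plates, cells were exposed to test compound for 48 hours across five concentrations. GI50 = concentration required for 50% inhibition of growth. TGI is the concentration that stops growth completely.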 Bounds are passed on as bounds.

What all share (assay): inhibition of tumour cell growth, NCI panel, 48 h
For assay [1], the system named is SN12C renal.
Assay [2] has as its system OVCAR-4 ovarian.
Assay [3] concerns M14 melanoma.
Assay [4] relates to UO-31 renal.
The subject of assay [5] is OVCAR-3 ovarian.
Assay [6] relates to ACHN renal.
In assay [7] the test system is HT29 colon.
Assay [8] deals with SF-268 CNS.
For assay [9], the system named is A498 renal.
For assay [10], the system named is SK-OV-3 ovarian.

Take `Cc1c(NC(=O)C(C)(C)Br)c(=O)oc2c(C)c3occc(=O)c3cc12`: the TGI is more than 100 µM in assay [1]; more than 100 µM in assay [2]; more than 100 µM in assay [3]; 76.2 µM in assay [4]; more than 100 µM in [5]; more than 100 µM in assay [6]. The TGI in assay [7] was more than 100 µM; in [8] it was more than 100 µM; in [9], 66.3 µM.

For the compound `O=C(/C=C/c1ccc(F)cc1)c1ccc(Cl)cc1Cl`, the GI50 in assay [1] was 61.8 µM; in [2] it was 82.9 µM; in assay [3], more than 100 µM; in assay [4] it was 91.8 µM; in [5] it was 25.8 µM; in [6], more than 100 µM. Besides, the results for the GI50 in assay [10], in assay [8] and in assay [9] were more than 100 µM, 74.5 µM and more than 100 µM, respectively. Besides, the TGI in assay [1] was more than 100 µM; in [2], more than 100 µM; in [3] it was more than 100 µM; in assay [4], more than 100 µM; in assay [5], 73 µM; in assay [6], more than 100 µM. The TGI in [10], in assay [8] and in [9] was more than 100 µM in each case.

Regarding `COc1cc(/C=C(\C#N)C(=O)c2ccccc2)ccc1OCc1ccccc1`, the TGI in [1], in assay [2], in [3], in assay [4], in [5] and in assay [6] was more than 100 µM throughout. Also, in assay [10], the TGI is more than 100 µM.

As for `CC(O)c1cccc(NCc2c3ccccc3c(=O)n3c2oc2ccccc23)c1` (stereo unspecified), the GI50 in assay [1] is 15.5 µM; in [3], 4.5 µM; in [4], 3.58 µM; in assay [5] it was 9.25 µM; in assay [6], 3.51 µM; in assay [7], 35.6 µM. In addition, the GI50 was 4.42 µM in assay [10], more than 100 µM in assay [8] and 1.61 µM in assay [9]. Besides, the TGI in [1] was more than 100 µM; in [3], 25.2 µM; in assay [4] it was 28.1 µM; in assay [5], 85.2 µM; in assay [6] it was 13.5 µM; in assay [7] it was more than 100 µM. The TGI was 30.6 µM in assay [10], more than 100 µM in [8] and 4.93 µM in assay [9].

In the case of `CCOC(=O)C(Cc1c[nH]c2ccc(N)cc12)(NC(C)=O)C(=O)OCC`, the GI50 in [1], in assay [2], in [4], in assay [5], in assay [6] and in assay [7] was more than 1000 µM each time. Further, the GI50 in assay [10] and in [8] was more than 1000 µM each time. Besides, the TGI in [1], in assay [2], in assay [3], in assay [4], in assay [5] and in [6] was more than 1000 µM throughout. Besides, the TGI in assay [7], in assay [10] and in assay [8] was more than 1000 µM throughout.

As for `CCCCOC(=O)NC(=O)c1cn(CCCOC(=O)CCCCCCCCC(=O)OCCCn2cc(C(=O)NC(=O)OCCCC)c(=O)[nH]c2=O)c(=O)[nH]c1=O`, the TGI in [1], in assay [2], in assay [3], in [4], in assay [5] and in assay [6] was more than 100 µM in each case. Also, the TGI in [7], in assay [10] and in assay [8] was more than 100 µM in each case.

Take `COc1ccc(NC(=O)C(=O)C(C(=O)c2ccccc2)C2OC(=O)c3ccccc32)c([N+](=O)[O-])c1` (stereo unspecified): the TGI in assay [1], in assay [2], in [3], in [4], in [6] and in [7] was more than 100 µM each time. The TGI in [10], in assay [8] and in assay [9] was more than 100 µM throughout.

Turning to `CC(C)CS(=O)(=O)/C(=C(\c1ccc(Br)cc1)S(=O)(=O)CC(C)C)c1ccc(Br)cc1`, the TGI in [1], in assay [2], in [3], in assay [4], in [5] and in [6] was more than 100 µM throughout. Further, the TGI in assay [7] was more than 100 µM; in assay [8], more than 100 µM; in assay [9], 31.6 µM.

As for `NNC(=O)/C(=C/c1ccc(Cl)c(Cl)c1)NC(=O)c1ccccc1`, the TGI in [1], in assay [2], in [3], in assay [4], in assay [5] and in assay [6] was more than 100 µM throughout. For the same compound, the TGI in [7] and in assay [8] was more than 100 µM each time.

As to `CC(=O)Nc1ccc(C(=O)NN2C(=O)C(Cl)C2c2ccc(Cl)cc2)cc1` (stereo unspecified), the TGI in assay [1] is more than 100 µM; in assay [2], more than 100 µM; in assay [3], more than 100 µM; in [4] it was more than 100 µM; in assay [5], 52.3 µM; in assay [6] it was more than 100 µM. For the same compound, the TGI in assay [7] was more than 100 µM; in assay [10] it was 71.9 µM; in assay [8], more than 86.3 µM.

For `CCOC(=O)c1cc(C#N)c(=O)n(/N=C(\C)c2ccncc2)c1O`, the GI50 in [1], in assay [2], in [3], in [4], in assay [5] and in [6] was more than 100 µM throughout. The GI50 in assay [7], in [10] and in assay [8] was more than 100 µM throughout. For the same compound, the TGI in assay [1], in [2], in [3], in assay [4], in [5] and in assay [6] was more than 100 µM each time. The TGI in assay [7], in [10] and in assay [8] was more than 100 µM in each case.
